According to US20060128614A1, “Antimicrobial peptides with reduced hemolysis and methods of their use” (priority 2002, published 2006):
Converted amounts (≈) assume the structure as drawn. Where two headings read alike, the source gives them in different places. Non-standard residues stand in square brackets, D forms with d. Residues, ends and D or L forms follow the SMILES beside them. Bip = N[C@@H](Cc1ccc(-c2ccccc2)cc1)C(=O)O; 1Nal = N[C@@H](Cc1cccc2ccccc12)C(=O)O; 2Nal = N[C@@H](Cc1ccc2ccccc2c1)C(=O)O

Assays:
[1] = test system: S. aureus; type: cell-based, Staphylococcus aureus
Protocol: (§1) The in vitro antimicrobial activities of antimicrobial agents were tested using standard NCCLS bacterial and fungi inhibition assays or minimum inhibition concentration (MIC) tests. The MIC value is the lowest concentration of peptide at which the visible growth of test organisms was inhibited and reduced. Overnight cultures of the test organisms were diluted to produce an inoculum containing approximately […] in Meuller-Hinton broth (MHB). From the peptide stock solution, serial dilutions of the peptides into […] were prepared and all wells of a 96-well microtiter plate were subsequently inoculated with the diluted culture of the test organisms. After 18 hours of incubation at 37°, the results were assayed for turbidity as an indicator of cell growth. MIC values for the peptides are shown in Table 3 and Table 4 and FIGS. 1(A), 1(B), 1 (C) and 1 (D) show survival rates for Pac-625 and Pac-626.

[2] = test system: E. coli; type: cell-based, Escherichia coli
Protocol: as §1

Row | MIC against S. aureus ([1]; 18 h) | MIC against E. coli ([2]; 18 h) | MIC against S. aureus [1] | MIC against E. coli [2] | SMILES
1 | >64 µg/mL | >64 µg/mL |  |  | CC[C@H](C)[C@@H]1NC(=O)[C@H](Cc2ccc3ccccc3c2)NC(=O)[C@H](CCCNC(=N)N)NC(=O)[C@H](CCCNC(=N)N)NC(=O)[C@H](Cc2ccc3ccccc3c2)NC(=O)[C@H](CCCCN)NC1=O [Pac-401 C, K (2-Nal) R R (2-Nal) I] (cyclo(K[2Nal]RR[2Nal]I); ring closure inferred)
2 | >64 µg/mL | >64 µg/mL |  |  | CC[C@H](C)[C@@H]1NC(=O)[C@H](Cc2ccc3ccccc3c2)NC(=O)[C@H](CCCCN)NC(=O)[C@H](CCCNC(=N)N)NC(=O)[C@H](Cc2ccc3ccccc3c2)NC(=O)[C@H](CCCCN)NC1=O [Pac-403 C, K (2-Nal) I K (2-Nal) R] (cyclo(K[2Nal]IK[2Nal]R); ring closure inferred)
3 | 64 µg/mL (≈ 45.7 µM) | 64 µg/mL (≈ 45.7 µM) |  |  | CC[C@H](C)[C@@H]1NC(=O)[C@H](CCCCN)NC(=O)[C@H](Cc2ccc3ccccc3c2)NC(=O)[C@H](CCCNC(=N)N)NC(=O)[C@H](CCCNC(=N)N)NC(=O)[C@H](Cc2ccc3ccccc3c2)NC(=O)[C@H](C(C)C)NC(=O)[C@H](CCCNC(=N)N)NC(=O)[C@H](Cc2ccc3ccccc3c2)NC1=O [Pac-626 C, I (2-Nal) R V (2-Nal) R R (2-Nal) K] (cyclo(I[2Nal]RV[2Nal]RR[2Nal]K); ring closure inferred)
4 | 64 µg/mL (≈ 45.7 µM) | 64 µg/mL (≈ 45.7 µM) |  |  | CC[C@H](C)[C@@H]1NC(=O)[C@H](Cc2ccc3ccccc3c2)NC(=O)[C@H](CCCNC(=N)N)NC(=O)[C@H](C(C)C)NC(=O)[C@H](Cc2ccc3ccccc3c2)NC(=O)[C@H](CCCNC(=N)N)NC(=O)[C@H](CCCNC(=N)N)NC(=O)[C@H](Cc2ccc3ccccc3c2)NC(=O)[C@H](CCCCN)NC1=O [Pac-625 C, K (2-Nal) R R (2-Nal) V R (2-Nal) I] (cyclo(K[2Nal]RR[2Nal]VR[2Nal]I); ring closure inferred)
5 | 64 µg/mL (≈ 43.3 µM) | 64 µg/mL (≈ 43.3 µM) |  |  | CC[C@H](C)[C@@H]1NC(=O)[C@H](Cc2ccc(-c3ccccc3)cc2)NC(=O)[C@H](CCCNC(=N)N)NC(=O)[C@H](C(C)C)NC(=O)[C@H](Cc2ccc(-c3ccccc3)cc2)NC(=O)[C@H](CCCNC(=N)N)NC(=O)[C@H](CCCNC(=N)N)NC(=O)[C@H](Cc2ccc(-c3ccccc3)cc2)NC(=O)[C@H](CCCCN)NC1=O [Pac-628 C, K (Bip) R R (Bip) V R (Bip) I] (cyclo(K[Bip]RR[Bip]VR[Bip]I); ring closure inferred)
6 | >64 µg/mL | >64 µg/mL |  |  | CC(C)[C@@H]1NC(=O)[C@H](Cc2ccc3ccccc3c2)NC(=O)[C@H](CCCNC(=N)N)NC(=O)[C@H](CCCNC(=N)N)NC(=O)[C@H](Cc2ccc3ccccc3c2)NC(=O)[C@H](CCCCN)NC1=O [Pac-402 C, K (2-Nal) R R (2-Nal) V] (cyclo(K[2Nal]RR[2Nal]V); ring closure inferred)
7 |  |  | 4 µg/mL (≈ 2.82 µM) | 8 µg/mL (≈ 5.65 µM) | CC[C@H](C)[C@H](NC(=O)[C@H](Cc1ccc2ccccc2c1)NC(=O)[C@H](CCCNC(=N)N)NC(=O)[C@@H](NC(=O)[C@H](Cc1ccc2ccccc2c1)NC(=O)[C@H](CCCNC(=N)N)NC(=O)[C@@H](NC(=O)[C@H](Cc1ccc2ccccc2c1)NC(=O)[C@H](CCCCN)NC(C)=O)[C@@H](C)CC)C(C)C)C(N)=O [Pac-629, Ac-K(2-Nal) IR(2-Nal) VR(2-Nal) I-NH2] (Ac-K[2Nal]IR[2Nal]VR[2Nal]I-NH2)
8 | 64 µg/mL (≈ 45.7 µM) | 64 µg/mL (≈ 45.7 µM) |  |  | CC[C@H](C)[C@@H]1NC(=O)[C@H](Cc2cccc3ccccc23)NC(=O)[C@H](CCCNC(=N)N)NC(=O)[C@H](C(C)C)NC(=O)[C@H](Cc2cccc3ccccc23)NC(=O)[C@H](CCCNC(=N)N)NC(=O)[C@H](CCCNC(=N)N)NC(=O)[C@H](Cc2cccc3ccccc23)NC(=O)[C@H](CCCCN)NC1=O [Pac-627 C, K (1-Nal) R R (1-Nal) V R (1-Nal) I] (cyclo(K[1Nal]RR[1Nal]VR[1Nal]I); ring closure inferred)
